Data set [1] has as its system mice with isoproterenol (ISO)-induced ischemic heart disease. The experiment in a line: ISO-induced ischemic heart disease mouse model: serum ANP and NT-proBNP (ELISA). In kind it is in vivo. Conditions: 20 mg/kg intragastric once a day 11 days, ISO 40 mg/kg s.c. 7 times. On the procedure:
(§1) Male C57BL/6 mice were allowed to acclimate to the environment and then randomly divided into 9 groups, namely the blank control group, the ISO model group, the ISO+diltiazem 20 mg/kg positive control drug group, the ISO+Formula I (0.1, 0.5, 2 mg/kg) groups, and the ISO+Formula II (0.1, 0.5, 2 mg/kg) groups. Mice in the drug administration groups were intragastrically administered the corresponding doses of Formula I and Formula II compounds once a day at the same time. Mice in the positive drug diltiazem group were intragastrically administered the corresponding dose of diltiazem once a day. Mice in the blank control group and the model group were given the same amount of solvent (0.5% CMC-Na). The administration volume was 10 mL/kg, and the administration was continuous for 11 days.
(§2) From the 4th to the 10th day of drug administration, ISO modeling was carried out. The blank control group was subcutaneously injected with normal saline, and mice in the other groups were subcutaneously injected with ISO at a dose of 40 mg/kg (modeling was performed 2 hours after drug administration), for a total of 7 times.
Detection of Myocardial Hypertrophy/Heart Failure Biomarkers: After the drug administration ended, the animals' eyes were enucleated to collect blood. The blood was left to stand at room temperature for 2 hours, and then centrifuged at 3500 rpm for 20 minutes to separate the serum. The contents of serum ANP and NT-proBNP were determined according to the instructions of the ELISA kit.
Background: ELISA stands for enzyme-linked immunosorbent assay.

Data set [2] has as its system Rat H9C2 cardiomyocytes. The experiment in a line: cells. The note with it: H9c2, 24 h, read-out: Cell viability.
Protocol: (§3) Rat H9C2 cardiomyocytes in the logarithmic growth phase were seeded at a density of 7×10^4 cells/mL into 96-well plates, with 100 μL per well. […] After 24 hours of culture, the drug treatment groups were respectively added with 50 μM Ang II and the corresponding concentration of the drug. The Ang II model group was added with 50 μM Ang II and an equal volume of DMSO, and the blank control group was added with an equal volume of DMSO. Then, the cells were cultured for another 24 hours. After removing the supernatant, 100 μL of MTT solution (0.5 mg/mL) was added to each well, and the plates were placed in an incubator for 4 hours. After removing the supernatant again, 150 μL of DMSO was added to each well, and the mixture was shaken and mixed evenly for 10 minutes. The absorbance was measured at 570 nm using a microplate reader to calculate the cell viability.
(§4) Cell viability (%)=[(As−Ab)/(Ac−Ab)]×100% • As: Experimental well (culture medium containing cells, MTT, Ang II); • Ac: Control well (culture medium containing cells, MTT, without Ang II); • Ab: Blank well (culture medium without cells, MTT, without Ang II).
Data set [3] deals with H9C2 cardiomyocytes. The note with it: for OD: 6 h hypoxia, 12 h reoxygenation, CCK 450 nm; for Cell viability: rat, h9c2 cells.
Protocol: (§5) H9C2 cardiomyocytes in the logarithmic growth phase were seeded into 96-well plates at a density of 7×10^4 cells/mL, with 100 μL per well.
(§6) After 24 hours of culture, the culture medium of the H/R and drug-treated groups was replaced with serum-free glucose-free DMEM medium (100 μL per well). The cells were then placed in an anaerobic incubator and cultured under hypoxic conditions in a 37° C. cell culture incubator. After 6 hours, the supernatant of the H/R and drug-treated groups was removed and replaced with high-glucose medium containing 10% fetal bovine serum (100 μL per well). Each drug-treated group received the corresponding concentration of the drug, while the H/R model group and the blank control group received an equal volume of DMSO.
(§7) After removing the supernatant, 100 μL of CCK solution (the volume of CCK accounted for 10% of the DMEM culture medium volume) was added to each well. The cells were cultured in the cell culture incubator for 1 hour, and the absorbance was measured at 450 nm using a microplate reader to calculate the cell viability. Cell viability was calculated as follows: Cell viability (%)=(Experimental well-Blank well)/(Control well-Blank well)×100%.
For data set [4], the system named is mice with isoproterenol (ISO)-induced ischemic heart disease. As to the kind of experiment: ISO-induced ischemic heart disease mouse model: myocardial tissue pathology (H&E). In kind it is in vivo. Conditions: 20 mg/kg, H&E. On the procedure:
as §1, §2
Pathological detection of myocardial tissue: After the experiment ended, the heart was washed with ice-cold physiological saline and dried with absorbent paper. It was then cut transversely into two halves. One-third of the part closer to the apex of the heart was fixed in a 4% paraformaldehyde solution. After dehydration with gradient ethanol and clearing with xylene, it was immersed in melted paraffin three times for embedding, 30 minutes each time. After embedding, continuous sections (about 4 μm thick) were made. Routine hematoxylin and eosin (H.E.) staining was performed. The pathological state of the myocardial tissue was observed under an optical microscope, photographed, and analyzed.
• −: No abnormalities were observed. • +: No myocardial tissue damage was seen. There was local hypertrophy of cardiomyocytes in the interventricular septum and papillary muscles, local edema and degeneration of cardiomyocytes, widening of the local muscle space in the lesion area, and mild non-specific inflammation in the interstitium. • ++: No obvious myocardial tissue damage (cardiomyocyte necrosis) was observed. There was local hypertrophy of cardiomyocytes in the interventricular septum and papillary muscles, local edema and degeneration of cardiomyocytes. Myofibril dissolution (disappearance of cross-striations) could be seen in local areas. The lesions were relatively limited and distributed in small foci. Non-specific inflammation was visible in the interstitium, and local fibrous tissue hyperplasia in the interstitium was noted. • +++: There was obvious hypertrophy of cardiomyocytes in the interventricular septum and papillary muscles, local edema and degeneration of cardiomyocytes. […] The lesion was limited to the subendocardium of the local interventricular septum (or papillary muscle), with a limited and small affected area. Non-specific inflammation was visible in the interstitium of the lesion area, and local fibrous tissue hyperplasia in the interstitium was noted. • ++++: The hypertrophy of cardiomyocytes in the interventricular septum and papillary muscles is remarkable. Locally, there is edema and degeneration of cardiomyocytes; there is obvious damage (necrosis of cardiomyocytes) in the myocardial tissue of the local interventricular septum and papillary muscles. The lesions are distributed in foci (or small patches), and the affected area is relatively large. […] Locally, there is edema and degeneration of cardiomyocytes; the damage (necrosis of cardiomyocytes) of the myocardial tissue of the local interventricular septum and papillary muscles is severe. The damage (necrosis) lesions are distributed in patches and are connected to each other. Transmural myocardial tissue damage of the interventricular septum and papillary muscles can be seen locally.

Data set [5] concerns H9C2 cardiomyocytes. The experiment in a line: cells. The note with it: Rattus norvegicus, H9c2, read-out: Cell viability.
Protocol: as §5, §6, §7
The subject of data set [6] is Rat H9C2 cardiomyocytes. The note with it: for OD: 800 μM ISO 24 h, MTT 570 nm; for Cell survival rate: rat, h9c2 cells, 24 h.
Protocol: (§8) Rat H9C2 cardiomyocytes in the logarithmic growth phase were seeded into 96-well plates at a density of 7×10^4 cells/mL, with 100 μL per well. […] After 24 hours of culture, the drug groups were treated with 800 μM ISO and the corresponding concentrations of drugs. The ISO model group received 800 μM ISO and an equal volume of DMSO, and the blank control group received an equal volume of DMSO. The cells were then cultured for another 24 hours. After removing the supernatant, 100 μL MTT solution (0.5 mg/mL) was added to each well and incubated in the cell culture incubator for 4 hours. After removing the supernatant, 150 μL DMSO was added to each well, mixed by shaking for 10 minutes, and the absorbance was measured at 570 nm using a microplate reader to calculate cell viability. Cell viability (%)=[(As−Ab)/(Ac−Ab)]×100%. As: Experimental well (medium with cells, MTT, ISO); Ac: Control well (medium with cells, MTT, without ISO); Ab: Blank well (medium without cells, MTT, without ISO).
Data set [7] has as its system H9C2 cardiomyocytes. As to the kind of experiment: Angiotensin II (Ang II)-induced cardiomyocyte hypertrophy model, crystal violet, cell surface area. The note with it: 10 μM; 40 μM Ang II 24 h; mean of 5 views. In kind it is cell-based, rat. On the procedure:
Adjust the H9C2 cardiomyocytes in the logarithmic growth phase to a density of 1.2×10^5 cells/well and inoculate them into six-well plates. […] After culturing for 24 hours, the drug administration groups are added with 40 μM Ang II and the corresponding concentrations of drugs. The Ang II+diltiazem 10 μM group is added with 40 μM Ang II and 10 μM diltiazem. The Ang II model group is added with 40 μM Ang II and an equal volume of DMSO. The blank control group is added with an equal volume of DMSO. Then, continue culturing for 24 hours. Discard the culture medium, wash the cells 3 times with PBS. Add 1 mL of methanol to each well and fix the cells at −20° C. for 20 minutes, and then let them return to room temperature. After discarding the methanol, add 1 mL of 0.5% crystal violet staining solution to each well and stain for 10 minutes. Wash the cells with clean water and take pictures under an inverted microscope. Randomly select fields of view for photographing. Use Image J software to measure the sum of the surface areas of all cardiomyocytes in the field of view and count the number of cells in the field of view at the same time to obtain the surface area of each cardiomyocyte. The surface area of a single cardiomyocyte=the sum of the surface areas of all cardiomyocytes in the field of view/the number of cardiomyocytes in the field of view.

The test system of data set [8] is Rat H9C2 cardiomyocytes. The note with it: for OD: 10 μM, 50 μM Ang II 24 h, MTT 570 nm.
Protocol: as §3, §4
The subject of data set [9] is mice with isoproterenol (ISO)-induced ischemic heart disease. The experiment in a line: ISO-induced ischemic heart disease mouse model: serum CK-MB (ELISA). It counts as in vivo. Conditions: 20 mg/kg intragastric once a day 11 days. The method, then:
as §1, §2
Myocardial enzyme CK-MB detection: After the administration ended, blood was collected from the animals by enucleation. The blood was left to stand at room temperature for 2 hours, and then centrifuged at 3500 rpm for 20 minutes to separate the serum. The content of CK-MB in the serum was determined according to the instructions of the ELISA kit.

The test system is the same in data set [10]. The experiment in a line: ISO-induced ischemic heart disease mouse model: Ca2+ in myocardial tissue. The note with it: 20 mg/kg intragastric once a day 11 days. In kind it is in vivo. On the procedure: as §1, §2
Calcium ion detection in myocardial tissue: After the experiment ended, some myocardial tissue was taken to prepare a 10% myocardial tissue homogenate with ultrapure water. The homogenate was centrifuged at 1200 rpm for 20 minutes at 4° C. to separate the supernatant of the myocardial tissue homogenate. The calcium ion content was determined according to the kit instructions; protein quantification was performed using the BCA protein assay method.

Data set [11] has as its system Rat H9C2 cardiomyocytes. As to the kind of experiment: cells. The note with it: H9c2, 24 h, read-out: Cell survival rate.
Protocol: as §8

Where two headings read alike, the source gives them in different places. Marks after values point to notes of the source that are not given here.

Take `COc1ccc([C@@H]2Sc3ccccc3N(CCN(C)C)C(=O)[C@@H]2OC(C)=O)cc1` [Diltiazem, reference compound]: in [1], the ANP is on record as 361.59 ± 46.95^ pg/mL and the NT-proBNP is recorded as 43.12 ± 2.93 pg/mL. The viability at 10 µM in the data set with Rat H9C2 cardiomyocytes [2] was 79.7%. Moreover, in the data set on H9C2 cardiomyocytes [3] (10 μM), the OD is listed as 0.522 ± 0.061. In data set [4], the “The number of animals with lesion degree +” value is given as 3, the “The number of animals with lesion degree ++” value is on record as 1, the “The number of animals with lesion degree +++” value was 4 and the “The number of animals with lesion degree ++++” value came out at 0. Besides, in data set [4], the “The number of animals with lesion degree +++++” value worked out at 0, the “The number of animals with lesion degree −” value came out at 2 and the “average score of myocardial tissue lesion degree” value worked out at 1.70 ± 1.25. The viability at 10 µM in the data set on H9C2 cardiomyocytes [5] came to 50.2%. Further, the OD in the data set with Rat H9C2 cardiomyocytes [6] (10 μM) stood at 0.773 ± 0.029. The Myocardial surface area in the data set on H9C2 cardiomyocytes [7] is reported as 392.02 ± 19.37^### μm^2. For the same molecule, the OD with Rat H9C2 cardiomyocytes [8] amounted to 0.857 ± 0.042. Also, the CK-MB in data set [9] is 17.98 ± 2.88 ng/mL. The “Ca^2+” value in [10] came out at 0.057 ± 0.011 mmol/gprot. For the same molecule, the viability at 10 µM in the data set with Rat H9C2 cardiomyocytes [11] was found to be 63.9%.
As to `Cc1c(O)cc2occ(Cc3ccc4c(c3)OCO4)c(=O)c2c1O` [Formula III], the OD with H9C2 cardiomyocytes [3] (0.1 μM) was found to be 0.552 ± 0.067; in the data set with H9C2 cardiomyocytes [3] (0.3 μM), 0.500 ± 0.062; with H9C2 cardiomyocytes [3] (1 μM), 0.555 ± 0.053; in the data set on H9C2 cardiomyocytes [3] (3 μM), 0.580 ± 0.069; in the data set with H9C2 cardiomyocytes [3] (5 μM) it was 0.543 ± 0.037; in the data set with H9C2 cardiomyocytes [3] (10 μM) it was 0.527 ± 0.047. In addition, the values for the OD in the data set on Rat H9C2 cardiomyocytes [6] (1 μM), in the data set on Rat H9C2 cardiomyocytes [6] (5 μM) and in the data set with Rat H9C2 cardiomyocytes [6] (10 μM) were 0.815 ± 0.041, 0.792 ± 0.061 and 0.750 ± 0.065, respectively. For the same molecule, in the data set with H9C2 cardiomyocytes [5], the viability at 0.1 µM amounted to 53.1%. The viability at 0.3 µM in the data set with H9C2 cardiomyocytes [5] was 48.1%. For the same molecule, the values for the viability at 1 µM with H9C2 cardiomyocytes [5] and in the data set on Rat H9C2 cardiomyocytes [11] were 53.4% and 67.4%, respectively. Further, in the data set with H9C2 cardiomyocytes [5], the viability at 3 µM turned out to be 55.8%. Further, the viability at 5 µM in the data set on H9C2 cardiomyocytes [5] was 52.2%; in the data set with Rat H9C2 cardiomyocytes [11], 65.5%. The results for the viability at 10 µM with H9C2 cardiomyocytes [5] and in the data set on Rat H9C2 cardiomyocytes [11] were 50.6% and 62.1%, respectively.
For `Cc1c(O)c(C)c2occ(Cc3ccc4c(c3)OCO4)c(=O)c2c1O` [methyl ophiopogonone A, reference compound], the OD is reported as 0.540 ± 0.034 in the data set with H9C2 cardiomyocytes [3] (1 μM); 0.501 ± 0.042 in the data set on H9C2 cardiomyocytes [3] (5 μM); 0.581 ± 0.054 with H9C2 cardiomyocytes [3] (10 μM); 0.781 ± 0.029 in the data set on Rat H9C2 cardiomyocytes [6] (1 μM); 0.801 ± 0.045 in the data set with Rat H9C2 cardiomyocytes [6] (5 μM); 0.724 ± 0.024^(p = 0.09) with Rat H9C2 cardiomyocytes [6] (10 μM). In the data set on Rat H9C2 cardiomyocytes [8], this molecule gave an OD of 0.833 ± 0.041. Further, the Cell viability with H9C2 cardiomyocytes [3] (1 µM) is 51.93%; in the data set with H9C2 cardiomyocytes [3] (5 µM), 48.17%; in the data set on H9C2 cardiomyocytes [3] (10 µM), 55.82%; in the data set with Rat H9C2 cardiomyocytes [8] (rat, h9c2 cells, 24 h, 10 µM) it was 77.40%. In addition, the Cell survival rate with Rat H9C2 cardiomyocytes [6] (1 µM) was 64.63%; in the data set with Rat H9C2 cardiomyocytes [6] (5 µM), 66.28%; in the data set with Rat H9C2 cardiomyocytes [6] (10 µM), 59.89%.

The record behind these values is US20260285849A1, “METHYLOPHIOPOGONONE A DERIVATIVE, AND PREPARATION AND USE THEREOF” (INSTITUTE OF MATERIA MEDICA, CHINESE ACADEMY OF MEDICAL …, priority 2022, published 2026).
